Results: PMC10571751, “Polyarginine Cell-Penetrating Peptides Bind and Inhibit SERCA2” (Cells, 2023)
Where no end group is shown, it is not given here. The star is where a group is joined. Biotin = O=C1N[C@H]2[C@H](CS[C@H]2CCCCC(=O)*)N1

B1: biotin-Arg11 (peptide)
peptide: Biotin-RRRRRRRRRRR
notes: polyarginine cell-penetrating peptide of 11 arginines; Peptides were synthesized with or without the N-terminal biotin; ELISA and SPR used the biotinylated form; also called biotinylated Arg11; polyarginine CPP; source: synthetic peptide (GenScript Biotech Corp, >80% purity)

Legend:
[1] = system: rat left ventricular cardiomyocytes; experiment: Field-stimulated whole-cell Ca2+ transients in isolated rat cardiomyocytes; type: cell-based, rat (Wistar); conditions: versus untreated Ctr, 5 µmol/L, 1 h preincubation, 1 Hz, 37 °C
Description: For single cell experiments, rat left ventricular cardiomyocytes were isolated as described previously. In brief, rats were anaesthetized by inhalation of a mixture of 5% isoflurane and 95% O2. Hearts were then rapidly excised and mounted via the aorta on a Langendorff apparatus to enable retrograde perfusion with buffer containing collagenase Type II (Worthington Biochemical Corporation, Lakewood, NJ, USA). Following digestion, the heart was cut down, diced, and agitated, and isolated cardiomyocytes were then filtered, washed, and sedimented. Cells were stored in a solution containing (in mmol/L) 130 NaCl, 5.4 KCl, 25 HEPES, 0.5 MgCl2, 0.4 NaH2PO4, 22 glucose, 0.2 CaCl2 (pH 7.40, 22 °C) until use, within 6 h of isolation.
Prior to experiments, cardiomyocytes were preincubated for 1 h with 5 µmol/L of the individual CPPs added to the cell storage solution. During the last 10 min of incubation, cells were additionally loaded with fluo-4 AM (5 µmol/L, Thermo Fisher Scientific, Waltham, MA, USA) for Ca^2+ imaging. The cells were then plated on the stage of an inverted microscope and perfused with HEPES-Tyrode solution containing (in mmol/L) 140 NaCl, 0.5 MgCl2, 5.0 HEPES, 5.5 glucose, 0.4 NaH2PO4, 5.4 KCl, and 1.8 CaCl2 at pH 7.4, 37 °C. Whole-cell Ca^2+ transients were recorded by wide-field photometry, as described previously, using a D-104 microscope photometer and photomultiplier tube (Horiba Ltd., Kyoto, Japan). During field stimulation at 1 Hz, fluorescence was excited by a 475 nm light-emitting diode, and emission was collected at >510 nm.
Ca^2+ signals were analysed by first subtracting background fluorescence values from the cellular recordings. Ca^2+ transient magnitude was calculated as peak fluorescence divided by resting fluorescence (F/F0). The decay time of Ca^2+ transients was assessed using a monoexponential fit of the declining phase of the Ca^2+ transient to calculate tau (s), using Clampfit 10.4 software (Molecular Devices LLC, Sunnyvale, CA, USA).

[2] = system: SERCA (SR vesicles from mouse left ventricle; SERCA2a); experiment: Oxalate-supported SR Ca2+ uptake and leak in mouse left ventricular homogenates (wild-type); type: biochemical, mouse (C57BL/6NT); conditions: 40 µmol/L CPP without cargo, 5 min, 37 °C, pH 7.0; uptake started with Na4ATP; Fura-2 340/390; nruns Ctr, TAT, Arg9, Arg11 = 69, 14, 23, 24
Description: (§1) Ca^2+ handling was also examined in homogenates prepared from mouse left ventricle, rat soleus, and rat extensor digitorum longus (EDL) muscles using methods described by O’Brien and modified by Li et al.. Freshly excised left ventricles and muscles were weighed and homogenized in ice cold homogenization buffer (1:10 wet weight/vol, pH 7.9) containing (in mmol/L) 300 sucrose, 5 NaN3, 1 EDTA, 40 L-histidine, 40 Tris HCl, and protease inhibitors (Complete EDTA-free No 05056489001, Roche, Mannheim, Germany). Homogenization was performed with a Polytron 1200 (Kinematica AG, Luzern, Switzerland) at 25,000 rpm for 3 × 20 s, with a 20 s break between bursts. Homogenates were then aliquoted, frozen in liquid N2, and stored at −80 °C until use.
(§2) 10–20 µL of freshly thawed and vortexed homogenate was added to 250 µL of “assay” buffer, containing (in mmol/L) 165 KCl, 22 Hepes, 7.5 oxalate, 11 NaN3, 0.0055 TPEN, 4.5 MgCl2, 9 Tris HCl, and 0.002 Fura-2 salt (pH 7.0, 37 °C). […]
(§3) Ca^2+ fluxes were monitored as Fura-2 fluorescence ratio (340 nm/390 nm) using a Hidex Sense Multimodal Microplate Reader (Kem-En-Tec Nordic AS, Uppsala, Sweden). […] The fluorescence ratio was calibrated to [Ca^2+] using the following equation: [Ca^2+] = Kd × ((R − Rmin)/(Rmax − R)) × (Sf2/Sb2), where R is the 340 nm/390 nm fluorescence ratio, and Kd is the dissociation constant of Fura-2 and Ca^2+ (224 nmol/L). Rmin is the fluorescence ratio at very low [Ca^2+] and Rmax is the ratio at saturating [Ca^2+], obtained by sequentially adding 3.3 mmol/L EGTA and 4.8 mmol/L CaCl2 to the well at the end of each recording. Sf2/Sb2 is the ratio of measured fluorescence intensity at 390 nm when Fura-2 is Ca^2+-free (3.3 mmol/L EGTA) or Ca^2+-bound (4.8 mmol/L CaCl2).
(§4) Ca^2+ recordings were smoothed using TableCurve 2D (V 5.01, Systat Software Inc., Palo Alto, CA, USA) prior to analysis. After the addition of Na4ATP, the rate constant for Ca^2+ uptake (k) was calculated by fitting the uptake curve to Ca^2+ = Ca^2+0 + ae^−t×k (Sigmaplot V14.0, Systat Software Inc.). […]

[3] = system: SERCA (SR vesicles from left ventricle of PLB knockout mice); experiment: Oxalate-supported SR Ca2+ uptake and leak in left ventricular homogenates of phospholamban knockout mice; type: biochemical, mouse (phospholamban knockout); conditions: 40 µmol/L CPP without cargo, 5 min, 37 °C, pH 7.0; nruns Ctr, TAT, Arg9, Arg11 = 58, 12, 17, 15
Description: as §1, §2, §3, §4

[4] = system: SERCA (rat soleus homogenates; SERCA2a); experiment: Oxalate-supported Ca2+ uptake, leak and releasable Ca2+ in rat soleus homogenates; type: biochemical, rat (Wistar); conditions: 40 µmol/L CPP without cargo, 5 min, 37 °C, pH 7.0; nruns Ctr, TAT, Arg9, Arg11 = 6, 5, 6, 6
Description: as §1, §2, §3, §4

rat SERCA1 = experiment: Oxalate-supported Ca2+ uptake in homogenates of HEK293 cells transfected with SERCA1; type: biochemical; conditions: nruns Ctr, Arg9, Arg11 = 4, 5, 5
Method: (§5) 10–20 µL of freshly thawed and vortexed homogenate was added to 250 µL of “assay” buffer, containing (in mmol/L) 165 KCl, 22 Hepes, 7.5 oxalate, 11 NaN3, 0.0055 TPEN, 4.5 MgCl2, 9 Tris HCl, and 0.002 Fura-2 salt (pH 7.0, 37 °C). Each CPP was added to attain a final concentration of 40 µmol/L and incubated for 5 min at 37 °C prior to experiments.
as §3, with “Sweden). Ca^2+ uptake by the vesicles was initiated by the addition of Na4ATP (2.2 mmol/L) and blocked by the application of thapsigargin (1.5 µmol/L) after 12 min [16].” for “Sweden).”, “CaCl2). […]” for “CaCl2).”

rat SERCA3 = experiment: Oxalate-supported Ca2+ uptake in homogenates of HEK293 cells transfected with SERCA3; type: biochemical; conditions: nruns Ctr, Arg9, Arg11 = 4, 5, 5
Method: as §5
as §3, with “Sweden). Ca^2+ uptake by the vesicles was initiated by the addition of Na4ATP (2.2 mmol/L) and blocked by the application of thapsigargin (1.5 µmol/L) after 12 min [16].” for “Sweden).”, “CaCl2). […]” for “CaCl2).”

rat SERCA2a = experiment: Oxalate-supported Ca2+ uptake in homogenates of HEK293 cells transfected with SERCA2a; type: biochemical; conditions: for Ca2+ uptake, SERCA2a-transfected cells, versus untreated: nruns Ctr, Arg9, Arg11 = 12, 16, 16
Method: as §5
(§6) Ca^2+ fluxes were monitored as Fura-2 fluorescence ratio (340 nm/390 nm) using a Hidex Sense Multimodal Microplate Reader (Kem-En-Tec Nordic AS, Uppsala, Sweden). Ca^2+ uptake by the vesicles was initiated by the addition of Na4ATP (2.2 mmol/L) and blocked by the application of thapsigargin (1.5 µmol/L) after 12 min [16]. SR Ca^2+ content, i.e., the “releasable Ca^2+” was estimated by adding the ryanodine receptor opener 4-Chloro-m-cresol (CmC, 5.5 mmol/L). The fluorescence ratio was calibrated to [Ca^2+] using the following equation: [Ca^2+] = Kd × ((R − Rmin)/(Rmax − R)) × (Sf2/Sb2), where R is the 340 nm/390 nm fluorescence ratio, and Kd is the dissociation constant of Fura-2 and Ca^2+ (224 nmol/L). Rmin is the fluorescence ratio at very low [Ca^2+] and Rmax is the ratio at saturating [Ca^2+], obtained by sequentially adding 3.3 mmol/L EGTA and 4.8 mmol/L CaCl2 to the well at the end of each recording. Sf2/Sb2 is the ratio of measured fluorescence intensity at 390 nm when Fura-2 is Ca^2+-free (3.3 mmol/L EGTA) or Ca^2+-bound (4.8 mmol/L CaCl2).
as §4, with “Inc.). Ca^2+ leak from the vesicles was calculated as the linear rise (slope) of the Ca^2+ signal after blockade of SERCA by thapsigargin. Leak measurements were normalized to SR content, determined as the peak [Ca^2+] after addition of CmC.” for “Inc.).”

rat SERCA2b = experiment: Oxalate-supported Ca2+ uptake in homogenates of HEK293 cells transfected with SERCA2b; type: biochemical; conditions: for Ca2+ uptake, SERCA2b-transfected cells, versus untreated: nruns Ctr, Arg9, Arg11 = 12, 12, 12
Method: as §5, §6
as §4, with “Inc.). Ca^2+ leak from the vesicles was calculated as the linear rise (slope) of the Ca^2+ signal after blockade of SERCA by thapsigargin. Leak measurements were normalized to SR content, determined as the peak [Ca^2+] after addition of CmC.” for “Inc.).”

[5] = system: SERCA (rat EDL homogenates; SERCA1); experiment: Oxalate-supported Ca2+ uptake, leak and releasable Ca2+ in rat EDL homogenates; type: biochemical, rat (Wistar); conditions: 40 µmol/L, 5 min, 37 °C, pH 7.0; without (Figure 4B) and with cargo (Figure 4D)
Description: as §1, with “use. […]” for “use.”
as §3, with “Sf2/Sb2 is the ratio of measured fluorescence intensity at 390 nm when Fura-2 is Ca^2+-free (3.3 mmol/L EGTA) or Ca^2+-bound (4.8 mmol/L CaCl2).” left out

12xHis-SERCA2(111-253) = target: T1, 12xHis-SERCA2(111-253) (UniProt P16615 111-253); experiment: SPR; Biacore X100; biotinylated Arg11 immobilised on an SA chip at 744.3 RU; 12xHis-SERCA2(111-253) injected at 0.7–200 nM, 0.19–50 nM or 12.5–200 nM, 30 µL/minute for 180 s; dissociation 600 or 1000 s; 1 × Biacore running buffer; one-to-one Langmuir model; conditions: both partners purified
T1 construct: also called recombinant SERCA2 polypeptide containing the A-domain; actuator domain of SERCA2; source: recombinant, generated by Genscript; dialysed into Biacore running buffer for SPR
T1 sequence (P16615 111-253): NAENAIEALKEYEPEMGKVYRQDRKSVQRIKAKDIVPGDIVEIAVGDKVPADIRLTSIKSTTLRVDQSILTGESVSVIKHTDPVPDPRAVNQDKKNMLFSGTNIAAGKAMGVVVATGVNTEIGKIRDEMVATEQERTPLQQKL

Row | Molecule | effect on Ca2+ transient decay (tau), in words [1] | increase in tau value for Ca2+ removal (Ca2+ transient decay) ([1]; p = 0.021, ncells Ctr 37, Arg11 31, 4 hearts) [%] | Ca2+ uptake rate, effect versus untreated control [2] | Ca2+ uptake, PLB knockout, effect versus untreated control [3] | Ca2+ uptake rate in soleus, effect versus untreated control [4] | Ca2+ uptake rate, SERCA1-transfected cells, versus untreated (rat SERCA1) | Ca2+ uptake rate, SERCA3-transfected cells, versus untreated (rat SERCA3) | inhibition of Ca2+ uptake compared with Arg9, SERCA2a (rat SERCA2a; comparison Arg11 versus Arg9) | Ca2+ uptake, SERCA2a-transfected cells, versus untreated (rat SERCA2a) | inhibition of Ca2+ uptake compared with Arg9, SERCA2b (rat SERCA2b; comparison Arg11 versus Arg9) | Ca2+ uptake, SERCA2b-transfected cells, versus untreated (rat SERCA2b) | Ca2+ uptake rate in EDL, effect versus untreated control [5] | Kd (12xHis-SERCA2(111-253)) [nM] | koff (12xHis-SERCA2(111-253)) [s⁻¹] | kon (12xHis-SERCA2(111-253)) [M⁻¹ s⁻¹]
1 | RRRRRRRRRRR [Arg11] | slowing of Ca^2+ transient decay | 14 | marked slowing of Ca^2+ uptake | tending to cause the most marked inhibition of Ca^2+ uptake | most marked effect | Neither Arg9 nor Arg11 altered the Ca^2+ uptake rate | Neither Arg9 nor Arg11 altered the Ca^2+ uptake rate | tended to be more marked than that induced by Arg9 | significantly slowed Ca^2+ uptake | tended to be more marked than that induced by Arg9 | significantly slowed Ca^2+ uptake | – | – | – | –
2 | RRRRRRRRR [Arg9] | No such effects were noted | – | slowed Ca^2+ uptake, albeit to a lesser extent than Arg11 | lesser but statistically significant inhibition | lesser but statistically significant inhibition | Neither Arg9 nor Arg11 altered the Ca^2+ uptake rate | Neither Arg9 nor Arg11 altered the Ca^2+ uptake rate | – | significantly slowed Ca^2+ uptake | – | significantly slowed Ca^2+ uptake | – | – | – | –
3 | RKKRRQRRR [TAT, reference compound] | No such effects were noted | – | no significant effect | did not observe inhibition of SERCA2 activity | did not alter the rate of Ca^2+ uptake | – | – | – | – | – | – | did not observe inhibition of SERCA2 activity | – | – | –
4 | B1 | – | – | – | – | – | – | – | – | – | – | – | – | 0.4 | 6.6e-05 | 210000
